In ChEMBL document CHEMBL1149160, “Bisguanidine, bis(2-aminoimidazoline), and polyamine derivatives as potent and selective chemotherapeutic agents against Trypanosoma brucei rhodesiense. Synthesis and in vitro evaluation” (J Med Chem, 2004):

Columns and labels:
L6 [1] = test: Cytotoxic activity against rat L6 cells; type: cell-based
[2] = test system: Trypanosoma brucei rhodesiense; test: In vitro antitrypanosomal activity against Trypanosoma brucei rhodesiense; type: functional, organism-based
L6 [3] = test: Ratio of cytotoxicity against L6 cells to that of antitrypanosomal activity against Trypanosoma brucei rhodesiense; type: functional

SMILES | IC50 [2] [µM] | IC50 (L6 [1]) [µM] | Ratio (L6 [3])
O=C(NCCCN(CCO)CCNC(=O)OCc1ccccc1)OCc1ccccc1 | 14 | 116 | 8.3
CN(CCCNC1=NCCN1)CCNC1=NCCN1 | 46.6 | – | –
CC(C)(C)OC(=O)/N=C(/C=C(/O)OC(C)(C)C)Nc1ccc(Cc2ccc(N/C(=N\C(=O)OC(C)(C)C)NC(=O)OC(C)(C)C)cc2)cc1 | 31.7 | – | –
N=C(N)NCCCNCCNC(=N)N | 21.4 | – | –
N=C(N)Nc1ccc(S(=O)(=O)c2ccc(NC(=N)N)cc2)cc1 | – | – | >51
c1cc(NC2=NCCN2)ccc1Cc1ccc(NC2=NCCN2)cc1 | – | – | 71
CCOC(CNC(=N)Nc1ccc(Cc2ccc(NC(=N)NCC(OCC)OCC)cc2)cc1)OCC | – | – | >554
CC(C)(C)OC(=O)N1CCN(C(=O)OC(C)(C)C)C1=Nc1ccc(S(=O)(=O)c2ccc(N=C3N(C(=O)OC(C)(C)C)CCN3C(=O)OC(C)(C)C)cc2)cc1 | – | – | 21.7
C(CCCNC1=NCCN1)CCNC1=NCCN1 | 19.3 | – | –
CC(C)(C)OC(=O)N1CCC(N2CCN(C(=O)OC(C)(C)C)CC2)CC1 | 30.3 | – | –
CCCNCCCNC1=NCCN1 | 113 | – | –
N=C(N)NCCNCCNC(=N)N | 16.1 | – | –
CC(C)(C)OC(=O)N1CCN(C(=O)OC(C)(C)C)C1=Nc1ccc(Nc2ccc(N=C3N(C(=O)OC(C)(C)C)CCN3C(=O)OC(C)(C)C)cc2)cc1 | – | – | 202
C1CNC(NCCNCCNC2=NCCN2)=N1 | 84.4 | – | –
C(CNCCCNC1=NCCN1)CNC1=NCCN1 | 29.7 | – | –
c1cc(Nc2ccc(NC3=NCCN3)cc2)ccc1NC1=NCCN1 | – | – | 3072
O=[N+]([O-])c1ccc(-c2ccc([N+](=O)[O-])cc2)cc1 | 41.8 | – | –
CCCCCCCCN=C(N)N | 49.1 | – | –
CC(C)(C)OC(=O)NCC/N=C(\S)N1CCC(N2CCN(/C(S)=N\CCNC(=O)OC(C)(C)C)CC2)CC1 | 12.6 | – | –
N=C(N)Nc1ccc(Cc2ccc(NC(=N)N)cc2)cc1 | – | – | 17.4

SMILES | IC50 [2] [µM] | IC50 (L6 [1]) [µM] | Ratio (L6 [3])
NCCCN(CCN)CCc1c[nH]c2ccccc12 | 13.8 | – | –
Nc1nc(N)nc(Nc2ccc([As]3SCC(CO)S3)cc2)n1 (stereo unspecified) [MELARSOPROL] | 5.5 | – | 3456
CCOC(CNC(=N)Nc1ccc(Nc2ccc(NC(=N)NCC(OCC)OCC)cc2)cc1)OCC | – | – | >767
CCCCCCCCCCCCNC(=N)N [DODINE] | 11 | 19.6 | 1.8
Nc1ccc(-c2ccc(N)cc2)cc1 [BENZIDINE] | 1.42 | > 217 | >152
CC(C)(C)OC(=O)/N=C(\NC(=O)OC(C)(C)C)Nc1cccc(N2CCN(c3cccc(N/C(=N\C(=O)OC(C)(C)C)NC(=O)OC(C)(C)C)c3)CC2)c1 | 13.8 | – | –
O=C(c1ccc(Br)cc1)c1ccc(Br)cc1 | 25.9 | > 244 | >9.4
N=C(N)NCCCNCCCNC(=N)N | 21.2 | – | –
N=C(N)NCCCCCCNC(=N)N | 8.05 | > 302 | >37
C1CC(N2CCNCC2)CCN1 | 57.9 | – | –
CC(C)(C)OC(=O)/N=C(\NC(=O)OC(C)(C)C)Nc1ccc(S(=O)(=O)c2ccc(N/C(=N/C(=O)OC(C)(C)C)NC(=O)OC(C)(C)C)cc2)cc1 | 24.4 | – | –
C(CNCCNC1=NCCN1)CNC1=NCCN1 | 69.1 | – | –
CCCCCCCCCN=C(N)N | 19.9 | – | –
C1CNC(N2CCC(N3CCN(C4=NCCN4)CC3)CC2)=N1 | 71.2 | – | –
c1ccc(CCN(CCCNC2=NCCN2)CCNC2=NCCN2)cc1 | 27.6 | – | –
N=C(N)Nc1ccc(C(=O)c2ccc(NC(=N)N)cc2)cc1 | – | – | 13.1
O=C(c1ccc(NC2=NCCN2)cc1)c1ccc(NC2=NCCN2)cc1 | – | – | >104
CC(C)(C)OC(=O)N1CCN(C(=O)OC(C)(C)C)C1=Nc1ccc(Cc2ccc(N=C3N(C(=O)OC(C)(C)C)CCN3C(=O)OC(C)(C)C)cc2)cc1 | 11.6 | – | –
CN(CCN)CCCN | 61.8 | – | –
NCCCN(CCN)CCc1ccccc1 | 17.4 | 214 | 12

Continued, in another order:

IC50 [2] [µM] | SMILES | IC50 (L6 [1]) [µM] | Ratio (L6 [3])
0.414 | CCCCC[P+](CCCCC)(CCCCC)c1ccc(C(=O)c2ccc([P+](CCCCC)(CCCCC)CCCCC)cc2)cc1.[Br-].[Br-] | 11.8 | 28.5
4.5 | N=C(N)NCCCN(CCNC(=N)N)CCc1ccccc1 | > 199 | >43
3.1 | CN(CCCNC(=O)OCc1ccccc1)CCNC(=O)OCc1ccccc1 | 130 | 41
0.022 | N=C(N)Nc1ccc(Nc2ccc(NC(=N)N)cc2)cc1 | – | 29.5
0.047 | N=C(N)NCCCCCCCCCCCCNC(=N)N | 0.63 | 13
0.049 | N=C(N)NCCCCCCCCCNC(=N)N | > 265 | >5294
4.5 | N=C(N)c1cccc(/C=N/N=C(\N)N/N=C/c2cccc(C(=N)N)c2)c1 | – | –
0.98 | C1CCC(/N=C(\NC2CCCCC2)N(CCCN=C(NC2CCCCC2)NC2CCCCC2)CCN=C(NC2CCCCC2)NC2CCCCC2)CC1 | > 83 | >82
0.453 | C(CCCCNC1=NCCN1)CCCNC1=NCCN1 | 4.2 | 9.4
4.78 | O=C(CN1CCCN(C(=O)OCc2ccccc2)C1)OCc1ccccc1 | 89 | 18.6
0.107 | C(CCCCCCNC1=NCCN1)CCCCCNC1=NCCN1 | 2.35 | 22
0.27 | N=C(N)Nc1ccc(-c2ccc(NC(=N)N)cc2)cc1 | 46.4 | 172
7.2 | CC(C)(C)OC(=O)N1CCN(C(=O)OC(C)(C)C)C1=Nc1ccc(C(=O)c2ccc(N=C3N(C(=O)OC(C)(C)C)CCN3C(=O)OC(C)(C)C)cc2)cc1 | – | –
3.9 | O=C(NCCCN1CCN(C(=O)OCc2ccccc2)C1)OCc1ccccc1 | 106 | 27
0.118 | c1cc(-c2ccc(NC3=NCCN3)cc2)ccc1NC1=NCCN1 | 104 | 881
1 | O=C(NCCCN(CCNC(=O)OCc1ccccc1)CCc1c[nH]c2ccccc12)OCc1ccccc1 | 7.8 | 7.8
0.47 | CC(C)(C)OC(=O)/N=C(/C=C(/O)OC(C)(C)C)Nc1ccc(Nc2ccc(N/C(=N\C(=O)OC(C)(C)C)NC(=O)OC(C)(C)C)cc2)cc1 | 3.7 | 7.9
7.1 | CC(=O)OCCN(CCCNC(=O)OCc1ccccc1)CCNC(=O)OCc1ccccc1 | > 191 | >26
1.4 | c1c[nH]c(Nc2ccc(Nc3ccc(Nc4ncc[nH]4)cc3)cc2)n1 | 113 | 80.7
2.4 | C1CCC(NC(=NCCCNCCN=C(NC2CCCCC2)NC2CCCCC2)NC2CCCCC2)CC1 | – | –
0.0089 | N=C(N)c1ccc(/N=N/Nc2ccc(C(=N)N)cc2)cc1 [DIMINAZENE DIACETURATE] | – | –
0.251 | N=C(N)NCCCCCCCCNC(=N)N | > 276 | >1100
0.225 | C(CCCCNC1=NCCN1)CCCCNC1=NCCN1 | 16 | 71
3.88 | O=C(NCCCN(CCNC(=O)OCc1ccccc1)CCc1ccccc1)OCc1ccccc1 | 24.7 | 6.4
